In ChEMBL document CHEMBL1201862, “PubChem BioAssay data set” (2004):
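Dose response: 5 concentrations. Exposure: 48 h. Format: 96-well plates. Endpoint: linear interpolation; highest concentration if not reached. The concentration for 50% growth inhibition is given as GI50.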 The source made the active and inactive calls. Cut-off read from the data, not from the text of the source: active = GI50 up to about 1.1 µM and inactive = higher.

How the values were obtained:
Assay in all cases: NCI anticancer screen, dose series, 48 h
SF-539 = test system: SF-539
HL-60 = test system: HL-60
UACC-62 = test system: UACC-62
RXF 393 = test system: RXF 393
KM12 = test system: KM12
EKVX = test system: EKVX
OVCAR-3 = test system: OVCAR-3
NCI-H460 = test system: NCI-H460
A549 = test system: A549
HT-29 = test system: HT-29
SF-295 = test system: SF-295
SF-268 = test system: SF-268
HOP-62 = test system: HOP-62
DMS-273 = test system: DMS-273
CAKI-1 = test system: CAKI-1
KM-20L2 = test system: KM-20L2
OVCAR-8 = test system: OVCAR-8
LOX IMVI = test system: LOX IMVI
HCT-116 = test system: HCT-116
HCC 2998 = test system: HCC 2998
RPMI-8226 = test system: RPMI-8226
OVCAR-5 = test system: OVCAR-5
DLD-1 = test system: DLD-1
OVCAR-4 = test system: OVCAR-4
SN12C = test system: SN12C
TK-10 = test system: TK-10
IGROV-1 = test system: IGROV-1
SW-620 = test system: SW-620
Malme-3M = test system: Malme-3M
M19-MEL = test system: M19-MEL
SK-MEL-2 = test system: SK-MEL-2
HCT-15 = test system: HCT-15
SNB-75 = test system: SNB-75
HOP-92 = test system: HOP-92
DMS-114 = test system: DMS-114
LXFL 529 = test system: LXFL 529
SK-MEL-28 = test system: SK-MEL-28
XF498 = test system: XF498
ACHN = test system: ACHN
SR = test system: SR
K562 = test system: K562
SNB-19 = test system: SNB-19
MOLT-4 = test system: MOLT-4
NCI-H522 = test system: NCI-H522
NCI-H226 = test system: NCI-H226
SK-OV-3 = test system: SK-OV-3
UO-31 = test system: UO-31
M14 = test system: M14
CCRF-CEM = test system: CCRF-CEM
COLO 205 = test system: COLO 205
SK-MEL-5 = test system: SK-MEL-5
NCI-H23 = test system: NCI-H23
UACC-257 = test system: UACC-257
HOP-18 = test system: HOP-18
786-0 = test system: 786-0
A498 = test system: A498
U-251 = test system: U-251
SNB-78 = test system: SNB-78
MDA-MB-231 = test system: MDA-MB-231
PC-3 = test system: PC-3
DU-145 = test system: DU-145
MDA-N = test system: MDA-N
Hs-578T = test system: Hs-578T
BT-549 = test system: BT-549
T47D = test system: T47D
MDA-MB-435 = test system: MDA-MB-435

Measured: GI50

Cn1c(=O)n(CC2CS2)c2ccccc21 (configuration not stated)
inactive: SF-539 > 100 µM | HL-60 71.6 µM | UACC-62 > 100 µM | RXF 393 > 100 µM | KM12 > 100 µM | EKVX > 100 µM | OVCAR-3 > 100 µM | NCI-H460 > 100 µM | A549 > 100 µM | HT-29 > 100 µM | SF-295 > 100 µM | SF-268 > 100 µM | HOP-62 > 100 µM | DMS-273 > 100 µM | CAKI-1 44.5 µM | KM-20L2 > 100 µM | OVCAR-8 > 10 µM | LOX IMVI > 100 µM | HCT-116 > 100 µM | HCC 2998 > 100 µM | RPMI-8226 > 100 µM | OVCAR-5 > 100 µM | DLD-1 > 100 µM | OVCAR-4 > 100 µM | SN12C > 100 µM | TK-10 > 100 µM | IGROV-1 > 100 µM | SW-620 > 100 µM | Malme-3M > 100 µM | M19-MEL > 100 µM | SK-MEL-2 > 100 µM | SNB-75 > 100 µM | HOP-92 68.4 µM | DMS-114 50.9 µM | LXFL 529 > 100 µM | SK-MEL-28 > 100 µM | XF498 > 100 µM | ACHN > 100 µM | SR 99.3 µM | K562 > 100 µM | SNB-19 > 100 µM | MOLT-4 88.1 µM | NCI-H522 > 100 µM | NCI-H226 > 100 µM | SK-OV-3 > 100 µM | UO-31 > 100 µM | M14 > 100 µM | CCRF-CEM 70 µM | COLO 205 > 100 µM
> 100 µM: HCT-15

Cc1cc(Cl)ccc1NC(=O)C(=O)Cc1nc2ccc(C(=O)c3ccccc3)cc2nc1O
> 100 µM: HCT-15
inactive: SF-539 > 100 µM | HL-60 99.5 µM | UACC-62 70 µM | RXF 393 > 100 µM | KM12 42.5 µM | EKVX > 100 µM | OVCAR-3 > 100 µM | NCI-H460 96.8 µM | A549 75.3 µM | HT-29 > 100 µM | SF-295 95.1 µM | SF-268 > 100 µM | SK-MEL-5 79.6 µM | HOP-62 92 µM | DMS-273 49.2 µM | NCI-H23 > 100 µM | CAKI-1 > 100 µM | KM-20L2 > 100 µM | OVCAR-8 > 100 µM | LOX IMVI > 100 µM | HCT-116 > 100 µM | HCC 2998 > 100 µM | UACC-257 > 100 µM | DLD-1 > 100 µM | OVCAR-4 > 100 µM | SN12C > 100 µM | TK-10 > 100 µM | IGROV-1 > 100 µM | SW-620 97.9 µM | Malme-3M > 100 µM | M19-MEL > 100 µM | SK-MEL-2 > 100 µM | SNB-75 > 100 µM | HOP-92 20.4 µM | DMS-114 33.4 µM | LXFL 529 48.6 µM | SK-MEL-28 > 100 µM | XF498 > 100 µM | ACHN > 100 µM | SR 7.4 µM | HOP-18 > 100 µM | SNB-19 > 100 µM | MOLT-4 46.8 µM | NCI-H522 39.4 µM | NCI-H226 64.7 µM | SK-OV-3 > 100 µM | UO-31 78.7 µM | 786-0 > 100 µM | M14 96.6 µM | CCRF-CEM 35.6 µM | COLO 205 > 100 µM

COc1cc(OC)c(C#N)c(OC)c1C
inactive: SF-539 > 100 µM | HL-60 > 100 µM | UACC-62 > 100 µM | RXF 393 > 100 µM | KM12 > 100 µM | EKVX > 100 µM | NCI-H460 > 100 µM | A549 > 100 µM | HT-29 > 100 µM | SF-295 > 100 µM | SF-268 > 100 µM | A498 > 100 µM | SK-MEL-5 > 100 µM | HOP-62 > 100 µM | DMS-273 > 100 µM | NCI-H23 > 100 µM | CAKI-1 > 100 µM | KM-20L2 > 100 µM | OVCAR-8 > 100 µM | LOX IMVI > 100 µM | UACC-257 > 100 µM | OVCAR-5 98.4 µM | DLD-1 > 100 µM | OVCAR-4 > 100 µM | SN12C > 100 µM | TK-10 > 100 µM | SW-620 > 100 µM | U-251 > 100 µM | Malme-3M > 100 µM | M19-MEL > 100 µM | SK-MEL-2 > 100 µM | HOP-92 > 100 µM | DMS-114 > 100 µM | LXFL 529 > 100 µM | SK-MEL-28 > 100 µM | SNB-78 > 100 µM | XF498 5.62 µM | ACHN > 100 µM | SR > 100 µM | K562 > 100 µM | SNB-19 > 100 µM | MOLT-4 > 100 µM | NCI-H226 > 100 µM | SK-OV-3 > 100 µM | UO-31 > 100 µM | 786-0 > 100 µM | CCRF-CEM > 100 µM

C/C=C(\C)c1cc(=O)c2c(C)cc3c(c2o1)C(=O)c1c(O)c(C2CC(C)(N(C)C)C(O)C(C)O2)cc(C2CC(N(C)C)C(O)C(C)O2)c1C3=O (configuration not stated)
inactive: DMS-273 1.91 µM | KM-20L2 2.81 µM | DLD-1 2.31 µM | M19-MEL 3.21 µM | DMS-114 1.5 µM | SNB-78 3.87 µM
active: MDA-MB-231 0.156 µM | PC-3 0.229 µM | DU-145 0.138 µM | MDA-N 0.178 µM | Hs-578T 0.247 µM | TK-10 0.237 µM | BT-549 0.223 µM | HOP-92 0.256 µM | T47D 0.257 µM | XF498 < 0.01 µM | ACHN 0.0789 µM | SR 0.267 µM | HOP-18 0.154 µM | MDA-MB-435 0.217 µM | 786-0 0.13 µM | M14 0.129 µM

O=C(CCC/C(CC(=O)c1ccc(Br)cc1)=N\O)Nc1ccccc1
inactive: HL-60 65.2 µM | UACC-62 46 µM | RXF 393 45.9 µM | KM12 > 100 µM | EKVX > 100 µM | OVCAR-3 > 100 µM | NCI-H460 > 100 µM | A549 > 100 µM | HT-29 57.4 µM | SF-295 > 100 µM | SF-268 > 100 µM | SK-MEL-5 43.3 µM | HOP-62 > 100 µM | NCI-H23 > 100 µM | KM-20L2 91.4 µM | OVCAR-8 > 100 µM | LOX IMVI > 100 µM | HCT-116 > 100 µM | HCC 2998 > 100 µM | UACC-257 67.9 µM | RPMI-8226 10.7 µM | OVCAR-5 28.2 µM | DLD-1 96.4 µM | OVCAR-4 76.9 µM | SN12C > 100 µM | TK-10 > 100 µM | IGROV-1 57.3 µM | SW-620 > 100 µM | U-251 > 100 µM | Malme-3M > 100 µM | M19-MEL > 100 µM | SK-MEL-2 > 100 µM | SNB-75 > 100 µM | HOP-92 73.3 µM | DMS-114 25.5 µM | LXFL 529 > 100 µM | SK-MEL-28 > 100 µM | SNB-78 > 100 µM | XF498 > 100 µM | ACHN 96.6 µM | HOP-18 > 100 µM | SNB-19 > 100 µM | MOLT-4 24.5 µM | NCI-H226 > 100 µM | UO-31 > 100 µM | 786-0 > 100 µM | M14 > 100 µM | CCRF-CEM 70.3 µM | COLO 205 > 100 µM

C/C(CC(=O)Nc1cccc([N+](=O)[O-])c1)=N\NC(=O)C[n+]1ccccc1
inactive: SF-539 > 100 µM | HL-60 > 100 µM | UACC-62 > 100 µM | RXF 393 > 100 µM | KM12 > 100 µM | EKVX > 100 µM | OVCAR-3 > 100 µM | NCI-H460 > 100 µM | A549 > 100 µM | HT-29 > 100 µM | SF-295 > 100 µM | SF-268 > 100 µM | SK-MEL-5 > 100 µM | HOP-62 > 100 µM | NCI-H23 > 100 µM | KM-20L2 > 100 µM | OVCAR-8 > 100 µM | LOX IMVI > 100 µM | HCT-116 > 100 µM | HCC 2998 > 100 µM | UACC-257 > 100 µM | RPMI-8226 > 100 µM | OVCAR-5 > 100 µM | DLD-1 > 100 µM | TK-10 > 100 µM | IGROV-1 > 100 µM | SW-620 > 100 µM | U-251 > 100 µM | Malme-3M > 100 µM | M19-MEL > 100 µM | SK-MEL-2 > 100 µM | SNB-75 > 100 µM | HOP-92 > 100 µM | DMS-114 > 100 µM | LXFL 529 > 100 µM | SK-MEL-28 > 100 µM | SNB-78 > 100 µM | XF498 > 100 µM | MOLT-4 > 100 µM | NCI-H522 > 100 µM | NCI-H226 > 100 µM | SK-OV-3 > 100 µM | UO-31 > 100 µM | 786-0 > 100 µM | M14 > 100 µM | CCRF-CEM > 100 µM | COLO 205 > 100 µM
